Measurements: PubChem BioAssay AID2060607 (Molecular Pharmacology Branch, DTP, NCI, 2025)

Test system: 876862-298-R-J1-PDC complex spheroids, viability % test/control
Experiment: Anticancer human tumor 876862-298-R-J1-PDC patient-derived endometrial carcinoma cell line growth inhibition [CLK]
Conditions: for IC50: curve of first compound; for viability, T/C: stronger effect = lower value; active = viability on the fitted dose curve at most 10% of control; inactive = the rest
Method in brief: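 Multi-cell-type spheroids combined patient-derived tumor cells with HUVEC endothelial cells and human mesenchymal stem cells. Paired agents were dosed in half-log steps down from about clinical Cmax, or from 10 microM where Cmax was unknown.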

[1] = second compound 0.0316 µM, first compound 0.0316 µM
[2] = second compound 0.0316 µM, first compound 0.1 µM
[3] = second compound 0.0316 µM, first compound 0.316 µM
[4] = second compound 0.0316 µM, first compound 1 µM
[5] = second compound 0.1 µM, first compound 0.0316 µM
[6] = second compound 0.1 µM, first compound 0.1 µM
[7] = second compound 0.1 µM, first compound 0.316 µM
[8] = second compound 0.1 µM, first compound 1 µM
[9] = second compound 0.316 µM, first compound 0.0316 µM
[10] = second compound 0.316 µM, first compound 0.1 µM
[11] = second compound 0.316 µM, first compound 0.316 µM
[12] = second compound 0.316 µM, first compound 1 µM
[13] = second compound 1 µM, first compound 0.0316 µM
[14] = second compound 1 µM, first compound 0.1 µM
[15] = second compound 1 µM, first compound 0.316 µM
[16] = second compound 1 µM, first compound 1 µM
[17] = second compound 3.16 µM, first compound 0.0316 µM
[18] = second compound 3.16 µM, first compound 0.1 µM
[19] = second compound 3.16 µM, first compound 0.316 µM
[20] = second compound 3.16 µM, first compound 1 µM
[21] = second compound 10 µM, first compound 0.0316 µM
[22] = second compound 10 µM, first compound 0.1 µM
[23] = second compound 10 µM, first compound 0.316 µM
[24] = second compound 10 µM, first compound 1 µM
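Also: spheroids exposed to drugs for 7 days before readout.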
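For viability, T/C in this document: 100% = DMSO vehicle control wells.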

CCc1c2c(nc3ccc(O)cc13)-c1cc3c(c(=O)n1C2)COC(=O)[C@]3(O)CC + CN1CCN(c2cc(C(=O)Nc3cc4cc(-c5cnn(C)c5)ccc4cn3)ccn2)CC1
active: viability, T/C (second compound 0.0316 µM, first compound 0.01 µM) 8.53% | viability, T/C [1] 7.87% | viability, T/C [2] 4.18% | viability, T/C [3] 3.57% | viability, T/C [4] 2.49% | viability, T/C (second compound 0.1 µM, first compound 0.01 µM) 7.89% | viability, T/C [5] 5.72% | viability, T/C [6] 4.71% | viability, T/C [7] 3.63% | viability, T/C [8] 2.79% | viability, T/C (second compound 0.316 µM, first compound 0.00316 µM) 1.72% | viability, T/C (second compound 0.316 µM, first compound 0.01 µM) 1.95% | viability, T/C [9] 1.32% | viability, T/C [10] 0.72% | viability, T/C [11] 0.73% | viability, T/C [12] 0.47% | viability, T/C (second compound 1 µM, first compound 0.00316 µM) 0.79% | viability, T/C (second compound 1 µM, first compound 0.01 µM) 0.82% | viability, T/C [13] 1.38% | viability, T/C [14] 1.51% | viability, T/C [15] 0.71% | viability, T/C [16] 0.54% | viability, T/C (second compound 3.16 µM, first compound 0.00316 µM) 0.79% | viability, T/C (second compound 3.16 µM, first compound 0.01 µM) 0.71% | viability, T/C [17] 0.85% | viability, T/C [18] 0.75% | viability, T/C [19] 0.6% | viability, T/C [20] 0.43% | viability, T/C (second compound 10 µM, first compound 0.00316 µM) 0.44% | viability, T/C (second compound 10 µM, first compound 0.01 µM) 0.53% | viability, T/C [21] 0.53% | viability, T/C [22] 0.4% | viability, T/C [23] 0.55% | viability, T/C [24] 0.49%
inactive: viability, T/C (second compound 0.0316 µM, first compound 0.00316 µM) 25.1% | viability, T/C (second compound 0.1 µM, first compound 0.00316 µM) 14.1%
< 3.16 nM: IC50 (second compound 0.0316 µM) | IC50 (second compound 0.1 µM) | IC50 (second compound 0.316 µM) | IC50 (second compound 1 µM) | IC50 (second compound 3.16 µM) | IC50 (second compound 10 µM)

COc1cccc2c1C(=O)c1c(O)c3c(c(O)c1C2=O)CC(O)(C(=O)CO)CC3OC1CC(N)C(O)C(C)O1 (centres undefined) + CN1CCN(c2cc(C(=O)Nc3cc4cc(-c5cnn(C)c5)ccc4cn3)ccn2)CC1
inactive: viability, T/C [1] 31.7% | viability, T/C [2] 11.8% | viability, T/C [5] 19.7% | viability, T/C [6] 11.4%
active: viability, T/C [3] 7.2% | viability, T/C [4] 5.47% | viability, T/C (second compound 0.0316 µM, first compound 3.16 µM) 0.87% | viability, T/C (second compound 0.0316 µM, first compound 10 µM) 4.47% | viability, T/C [7] 8.05% | viability, T/C [8] 3.31% | viability, T/C (second compound 0.1 µM, first compound 3.16 µM) 1.71% | viability, T/C (second compound 0.1 µM, first compound 10 µM) 4.36% | viability, T/C [9] 1.75% | viability, T/C [10] 1.55% | viability, T/C [11] 1.57% | viability, T/C [12] 0.79% | viability, T/C (second compound 0.316 µM, first compound 3.16 µM) 1.62% | viability, T/C (second compound 0.316 µM, first compound 10 µM) 3.91% | viability, T/C [13] 0.91% | viability, T/C [14] 0.64% | viability, T/C [15] 0.76% | viability, T/C [16] 0.97% | viability, T/C (second compound 1 µM, first compound 3.16 µM) 1.41% | viability, T/C (second compound 1 µM, first compound 10 µM) 4.08% | viability, T/C [17] 1.18% | viability, T/C [18] 1.91% | viability, T/C [19] 0.9% | viability, T/C [20] 0.76% | viability, T/C (second compound 3.16 µM, first compound 3.16 µM) 2.8% | viability, T/C (second compound 3.16 µM, first compound 10 µM) 3.09% | viability, T/C [21] 0.55% | viability, T/C [22] 0.59% | viability, T/C [23] 1.41% | viability, T/C [24] 0.97% | viability, T/C (second compound 10 µM, first compound 3.16 µM) 0.51% | viability, T/C (second compound 10 µM, first compound 10 µM) 1.61%
< 31.6 nM: IC50 (second compound 0.0316 µM) | IC50 (second compound 0.1 µM) | IC50 (second compound 0.316 µM) | IC50 (second compound 1 µM) | IC50 (second compound 3.16 µM) | IC50 (second compound 10 µM)
